Results from PubChem BioAssay (NCI).
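These data come from cells grown in 96-well plates and exposed to compound for 48 hours at five concentrations. At the TGI there is no net growth.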

Columns and labels:
Assay in all cases: DTP human tumour cell line panel, 48 h
CCRF-CEM leukemia = tested on: CCRF-CEM leukemia
MCF7 breast = tested on: MCF7 breast
IGROV1 ovarian = tested on: IGROV1 ovarian
COLO 205 colon = tested on: COLO 205 colon
SK-MEL-28 melanoma = tested on: SK-MEL-28 melanoma
HCC-2998 colon = tested on: HCC-2998 colon
A549 NSCLC = tested on: A549 NSCLC
HCT-116 colon = tested on: HCT-116 colon
HOP-62 NSCLC = tested on: HOP-62 NSCLC
SW-620 colon = tested on: SW-620 colon
U251 CNS = tested on: U251 CNS
SNB-19 CNS = tested on: SNB-19 CNS
SK-MEL-5 melanoma = tested on: SK-MEL-5 melanoma
PC-3 prostate = tested on: PC-3 prostate
SF-539 CNS = tested on: SF-539 CNS
DU-145 prostate = tested on: DU-145 prostate
CAKI-1 renal = tested on: CAKI-1 renal
SF-295 CNS = tested on: SF-295 CNS
SNB-75 CNS = tested on: SNB-75 CNS
RXF 393 renal = tested on: RXF 393 renal
HOP-92 NSCLC = tested on: HOP-92 NSCLC
M14 melanoma = tested on: M14 melanoma
SR leukemia = tested on: SR leukemia
BT-549 breast = tested on: BT-549 breast
NCI/ADR-RES ovarian = tested on: NCI/ADR-RES ovarian
OVCAR-4 ovarian = tested on: OVCAR-4 ovarian
SN12C renal = tested on: SN12C renal
EKVX NSCLC = tested on: EKVX NSCLC
MDA-MB-231 breast = tested on: MDA-MB-231 breast
ACHN renal = tested on: ACHN renal
SK-OV-3 ovarian = tested on: SK-OV-3 ovarian
TK-10 renal = tested on: TK-10 renal
HS 578T breast = tested on: HS 578T breast
HL-60(TB) leukemia = tested on: HL-60(TB) leukemia
NCI-H226 lung = tested on: NCI-H226 lung
MOLT-4 leukemia = tested on: MOLT-4 leukemia
SF-268 CNS = tested on: SF-268 CNS
NCI-H460 lung = tested on: NCI-H460 lung
UO-31 renal = tested on: UO-31 renal
OVCAR-8 ovarian = tested on: OVCAR-8 ovarian
T-47D breast = tested on: T-47D breast
LOX IMVI melanoma = tested on: LOX IMVI melanoma
UACC-62 melanoma = tested on: UACC-62 melanoma
KM12 colon = tested on: KM12 colon
MDA-MB-435 = tested on: MDA-MB-435
NCI-H23 lung = tested on: NCI-H23 lung
786-0 renal = tested on: 786-0 renal
HT29 colon = tested on: HT29 colon
HCT-15 colon = tested on: HCT-15 colon
K-562 leukemia = tested on: K-562 leukemia
OVCAR-5 ovarian = tested on: OVCAR-5 ovarian
UACC-257 melanoma = tested on: UACC-257 melanoma
NCI-H522 lung = tested on: NCI-H522 lung
OVCAR-3 ovarian = tested on: OVCAR-3 ovarian
MDA-N = tested on: MDA-N
SK-MEL-2 melanoma = tested on: SK-MEL-2 melanoma
RPMI-8226 leukemia = tested on: RPMI-8226 leukemia
MALME-3M melanoma = tested on: MALME-3M melanoma

Measured: TGI

O=C(CC1C=CCS1(=O)=O)NCc1ccccc1 (configuration not stated)
not listed: SK-MEL-2 melanoma | RPMI-8226 leukemia | MALME-3M melanoma
> 100 µM: all other assays above

CC(NC(=O)C(N)CC(=O)O)NC(=O)N(C)C(C)(C)C (configuration not stated)
not listed: HOP-92 NSCLC
> 100 µM: all other assays above
